Laboratory results taken from patent publication US20080057044A1, “Lactobacillus Plantarum with Body-Fat Reducing Activity and the Foods Containing Them” (priority 2004, published 2008).

Key:
[1] = system: Lactobacillus plantarum Strain PL62; experiment: Antibiotic resistance (diameter of growth inhibition); assay type: cell-based
Description: The stronger antibiotic resistance a probiotic has, the higher survivability within the intestines is. Thus, the stronger an antibiotic resistance is, the better it is. However, if an antibiotic resistance is transferred, resistance problems may be brought about. It was confirmed whether an antibiotic resistance was transferred to other bacteria or not.

overweight people = settings: 180 overweight people, one year; cited from earlier work

Compound	Diameter (mm) of growth inhibition [1]	weight loss (overweight people)
CC1(C)S[C@@H]2[C@H](NC(=O)[C@H](N)c3ccccc3)C(=O)N2[C@H]1C(=O)O [Ampicillin]	34 mm	–
CC1(C)S[C@@H]2[C@H](NC(=O)C(C(=O)O)c3ccccc3)C(=O)N2[C@H]1C(=O)O (some centres unmarked) [Carbenicillin]	29 mm	–
CCN1CCN(C(=O)N[C@@H](C(=O)N[C@@H]2C(=O)N3C(C(=O)O)=C(CSc4nnnn4C)CS[C@H]23)c2ccc(O)cc2)C(=O)C1=O [Cefoperazone]	22 mm	–
CC(=O)OCC1=C(C(=O)O)N2C(=O)[C@@H](NC(=O)Cc3cccs3)[C@H]2SC1 [Cephalothin]	25 mm	–
O=C(N[C@H](CO)[C@H](O)c1ccc([N+](=O)[O-])cc1)C(Cl)Cl [Chloramphenicol]	30 mm	–
CCC[C@@H]1C[C@@H](C(=O)N[C@@H]([C@H]2O[C@H](SC)[C@H](O)[C@@H](O)[C@H]2O)[C@H](C)Cl)N(C)C1 [Clindamycin]	20 mm	–
CC[C@H]1OC(=O)[C@H](C)[C@@H](O[C@H]2C[C@@](C)(OC)[C@@H](O)[C@H](C)O2)[C@H](C)[C@@H](O[C@@H]2O[C@H](C)C[C@H](N(C)C)[C@H]2O)[C@](C)(O)C[C@@H](C)C(=O)[C@H](C)[C@@H](O)[C@]1(C)O [Erythromycin]	32 mm	–
Cc1onc(-c2ccccc2)c1C(=O)N[C@@H]1C(=O)N2[C@@H]1SC(C)(C)[C@@H]2C(=O)O [Oxacillin]	11 mm	–
CCN1CCN(C(=O)N[C@@H](C(=O)N[C@@H]2C(=O)N3[C@@H]2SC(C)(C)[C@@H]3C(=O)O)c2ccccc2)C(=O)C1=O [Piperacilin]	37 mm	–
CO[C@H]1/C=C/O[C@@]2(C)Oc3c(C)c(O)c4c(O)c(c(/C=N/N5CCN(C)CC5)c(O)c4c3C2=O)NC(=O)/C(C)=C\C=C\[C@H](C)[C@H](O)[C@@H](C)[C@@H](O)[C@@H](C)[C@H](OC(C)=O)[C@@H]1C [Rifampin]	24 mm	–
[H]/N=C(/N)N[C@H]1[C@H](O)[C@@H](O)[C@H](O[C@@H]2O[C@@H](C)[C@](O)(C=O)[C@H]2O[C@@H]2O[C@@H](CO)[C@H](O)[C@@H](O)[C@@H]2NC)[C@@H](N/C(N)=N\[H])[C@@H]1O [Streptomycin]	8 mm	–
CN(C)[C@@H]1C(O)=C(C(N)=O)C(=O)[C@@]2(O)C(O)=C3C(=O)c4c(O)cccc4[C@@](C)(O)[C@H]3C[C@@H]12 [Tetracycline]	24 mm	–
CN[C@H](CC(C)C)C(=O)N[C@H]1C(=O)N[C@@H](CC(N)=O)C(=O)N[C@H]2C(=O)N[C@H]3C(=O)N[C@H](C(=O)N[C@H](C(=O)O)c4cc(O)cc(O)c4-c4cc3ccc4O)[C@H](O)c3ccc(c(Cl)c3)Oc3cc2cc(c3O[C@@H]2O[C@H](CO)[C@@H](O)[C@H](O)[C@H]2O[C@H]2C[C@](C)(N)[C@H](O)[C@H](C)O2)Oc2ccc(cc2Cl)[C@H]1O [Vancomycin]	6 mm	–
Gentamicin	12 mm	–
Penicillin	29 mm	–
Trimethpprime/sulfamethoxasole	28 mm	–
conjugated linoleic acid [CLA]	–	4-10%
